Measurements reported in patent US4968686A, “Acyclic pyrrolo [2,3-d]pyrimidine analogs as antiviral agents” (The Regents of The University of Michigan, priority 1989, dated 1990).
Like-named read-outs stand apart in the source and are kept apart here.

Key:
[1] = tested on: MCMV; experiment: In vivo treatment of mice infected with murine cytomegalovirus (MCMV)
Experimental: Compound UMJD 183 was tested in mice infected with murine cytomegalovirus (MCMV). This animal model has been recognized as having capabilities predictive of efficacy in humans.
Compound UMJD 183 and the drug ganciclovir (DHPG) were administered to groups of 15 mice each at doses and times of administration shown in Table 3. Each compound at all doses was administered intraperitoneally twice daily for five days beginning at either 6, 24 or 48 hours after virus inoculation. Animals were observed daily and the number dying each day recorded.

[2] = Growth of HFF cells; assay type: cell-based, human; conditions: human, hff cells; 100 μM; 70-hour incubation; read-out: reduction of number of HFF cells
Experimental: (§1) Population doubling times and cell viability were measured in uninfected HFF and/or KB cells. Cells were planted in replicate 6-well plastic tissue culture dishes or in 25 cm^2 flasks as described above in part 1. Following an incubation period during which cells attached to the substrate, medium was decanted, the cell sheet rinsed once with HBS, and fresh medium added. The medium consisted of MEM(E) with 1.1 gm NaHCO3 /liter and 10% fetal bovine or calf serum plus appropriate log or half-log concentrations of drug. After additional periods of incubation from 1 to 72 hours at 37° C., cells were harvested by means of 0.05% trypsin plus 0.02% EDTA in a HEPES-buffered salt solution. Cells were enumerated using either a Coulter counter or a hemocytometer and viability determining using trypsan blue dye exclusion.
The effect of these compounds on the growth of human diploid fibroblasts (HFF cells) was less pronounced. During a 70-hour incubation, control cells underwent two doublings. […] A 100 μM concentration reduced the number of cells by less than 10%.

[3] = tested on: human PBLs; experiment: DNA synthesis in mitogen-stimulated human PBLs; assay type: cell-based; conditions: pokeweed mitogen or concanavalin A; 0.1, 1, 10 and 100 μM
[4] = Drug toxicity control in uninfected mice; assay type: in vivo; conditions: for mortality: mouse, in vivo, ip, read-out: Mortality Percent (Toxicity)
[5] = Growth of KB cells (population doubling times); assay type: cell-based, human; conditions: human, kb cells; 100 μM; read-out: reduction of KB cell growth rate
Experimental: as §1
In more extensive cytotoxicity testing, the halogenated compounds were tested for effects on the growth of KB cells. Populations doubling times were calculated from the logarithmic portions of growth curves and were as follows: […]

In the case of `Nc1nc(O)c2ncn(COC(CO)CO)c2n1` [Ganciclovir (DHPG), reference compound], the “MDD (Mean Day of Death)” value ([1]; 0.6 mg/kg at 6 h) was 4.6 days, the “Mortality Number” value ([1]; 0.6 mg/kg at 6 h) was 14/15 and the “Mortality Percent” value ([1]; 0.6 mg/kg at 6 h) was 93%. The “MDD (Mean Day of Death)” value ([1]; 0.6 mg/kg at 24 h) was 5.4 days, the “Mortality Number” value ([1]; 0.6 mg/kg at 24 h) was 12/15 and the “Mortality Percent” value ([1]; 0.6 mg/kg at 24 h) was 80%. For the same compound, the “MDD (Mean Day of Death)” value ([1]; 0.6 mg/kg at 48 h) was 5.3 days, the “Mortality Number” value ([1]; 0.6 mg/kg at 48 h) was 14/15 and the “Mortality Percent” value ([1]; 0.6 mg/kg at 48 h) was 93%. The “MDD (Mean Day of Death)” value ([1]; 1.9 mg/kg at 6 h) was 5.4 days, the “Mortality Number” value ([1]; 1.9 mg/kg at 6 h) was 5/15 and the “Mortality Percent” value ([1]; 1.9 mg/kg at 6 h) was 33%. For the same compound, the “MDD (Mean Day of Death)” value ([1]; 1.9 mg/kg at 24 h) was 4.9 days, the “Mortality Number” value ([1]; 1.9 mg/kg at 24 h) was 12/15 and the “Mortality Percent” value ([1]; 1.9 mg/kg at 24 h) was 80%. For the same compound, the “MDD (Mean Day of Death)” value ([1]; 1.9 mg/kg at 48 h) was 4.9 days, the “Mortality Number” value ([1]; 1.9 mg/kg at 48 h) was 11/15 and the “Mortality Percent” value ([1]; 1.9 mg/kg at 48 h) was 73%. For the same compound, the “MDD (Mean Day of Death)” value ([1]; 5.6 mg/kg at 6 h) was 4.2 days, the “Mortality Number” value ([1]; 5.6 mg/kg at 6 h) was 5/15 and the “Mortality Percent” value ([1]; 5.6 mg/kg at 6 h) was 33%. The “MDD (Mean Day of Death)” value ([1]; 5.6 mg/kg at 24 h) was 5.3 days, the “Mortality Number” value ([1]; 5.6 mg/kg at 24 h) was 7/15 and the “Mortality Percent” value ([1]; 5.6 mg/kg at 24 h) was 47%. The “MDD (Mean Day of Death)” value ([1]; 5.6 mg/kg at 48 h) was 5.5 days, the “Mortality Number” value ([1]; 5.6 mg/kg at 48 h) was 10/15 and the “Mortality Percent” value ([1]; 5.6 mg/kg at 48 h) was 67%. For the same compound, the “MDD (Mean Day of Death)” value ([1]; 16.7 mg/kg at 6 h) was 3.8 days, the “Mortality Number” value ([1]; 16.7 mg/kg at 6 h) was 4/15 and the “Mortality Percent” value ([1]; 16.7 mg/kg at 6 h) was 27%. The “MDD (Mean Day of Death)” value ([1]; 16.7 mg/kg at 24 h) was 5.3 days, the “Mortality Number” value ([1]; 16.7 mg/kg at 24 h) was 7/15 and the “Mortality Percent” value ([1]; 16.7 mg/kg at 24 h) was 47%. For the same compound, the “MDD (Mean Day of Death)” value ([1]; 16.7 mg/kg at 48 h) was 5.5 days, the “Mortality Number” value ([1]; 16.7 mg/kg at 48 h) was 8/15 and the “Mortality Percent” value ([1]; 16.7 mg/kg at 48 h) was 53%.
In the case of `Nc1ncnc2c1c(Cl)cn2COCCO` [UMJD 100, 4-Amino-5-chloro-7-(2-hydroxyethoxymethyl)pyrrolo[2,3-d]-pyrimidine], the inhibition at 70 h, 100 µM [2] was less than 10% and the “effect on DNA synthesis in human PBLs” value [3] was “did not affect DNA synthesis”.
With `Nc1ncnc2c1c(Br)cn2COC(CO)CO` [UMJD 183, 4-amino-5-bromo-7-[(1,3-dihydroxy-2-propoxy)methyl]-pyrrolo[2,3-d]pyrimidine] the “Mortality Number (Toxicity)” value ([4]; 1.9 mg/kg, no virus) was 0/15, the “Mortality Number (Toxicity)” value ([4]; 5.6 mg/kg, no virus) was 0/15 and the “MDD (Toxicity)” value ([4]; 16.7 mg/kg, no virus) was 5.0 days. For the same compound, the “Mortality Number (Toxicity)” value ([4]; 16.7 mg/kg, no virus) was 1/15, the “Mortality Number (Toxicity)” value ([4]; 50 mg/kg, no virus) was 0/15 and the “toxicity in uninfected animals (in words)” value ([4]; administered alone to uninfected animals) was “virtually no toxicity”. The “deaths in uninfected animals” value ([4]; all doses together) was 1 death in 60 animals, the mortality ([4]; 1.9 mg/kg, no virus) was 0% and the mortality ([4]; 5.6 mg/kg, no virus) was 0%. The mortality ([4]; 16.7 mg/kg, no virus) was 7%, the mortality ([4]; 50 mg/kg, no virus) was 0% and the “MDD (Mean Day of Death)” value ([1]; 1.9 mg/kg at 6 h) was 6.2 days. For the same compound, the “Mortality Number” value ([1]; 1.9 mg/kg at 6 h) was 5/15, the “Mortality Percent” value ([1]; 1.9 mg/kg at 6 h) was 33% and the “MDD (Mean Day of Death)” value ([1]; 1.9 mg/kg at 24 h) was 4.8 days. The “Mortality Number” value ([1]; 1.9 mg/kg at 24 h) was 9/15, the “Mortality Percent” value ([1]; 1.9 mg/kg at 24 h) was 60% and the “MDD (Mean Day of Death)” value ([1]; 1.9 mg/kg at 48 h) was 4.8 days. The “Mortality Number” value ([1]; 1.9 mg/kg at 48 h) was 10/15, the “Mortality Percent” value ([1]; 1.9 mg/kg at 48 h) was 67% and the “number of animals surviving virus infection (in words)” value ([1]; 5.6 mg/kg) was “highly significant increases in the number of animals surviving”. For the same compound, the “MDD (Mean Day of Death)” value ([1]; 5.6 mg/kg at 6 h) was 8.0 days, the “Mortality Number” value ([1]; 5.6 mg/kg at 6 h) was 1/15 and the “Mortality Percent” value ([1]; 5.6 mg/kg at 6 h) was 7%. The “MDD (Mean Day of Death)” value ([1]; 5.6 mg/kg at 24 h) was 6.3 days, the “Mortality Number” value ([1]; 5.6 mg/kg at 24 h) was 3/15 and the “Mortality Percent” value ([1]; 5.6 mg/kg at 24 h) was 20%. The “MDD (Mean Day of Death)” value ([1]; 5.6 mg/kg at 48 h) was 5.5 days, the “Mortality Number” value ([1]; 5.6 mg/kg at 48 h) was 6/15 and the “Mortality Percent” value ([1]; 5.6 mg/kg at 48 h) was 40%. The “MDD (Mean Day of Death)” value ([1]; 16.7 mg/kg at 6 h) was 8.7 days, the “Mortality Number” value ([1]; 16.7 mg/kg at 6 h) was 9/15 and the “Mortality Percent” value ([1]; 16.7 mg/kg at 6 h) was 60%. The “MDD (Mean Day of Death)” value ([1]; 16.7 mg/kg at 24 h) was 7.1 days, the “Mortality Number” value ([1]; 16.7 mg/kg at 24 h) was 12/15 and the “Mortality Percent” value ([1]; 16.7 mg/kg at 24 h) was 80%. The “MDD (Mean Day of Death)” value ([1]; 16.7 mg/kg at 48 h) was 8.4 days, the “Mortality Number” value ([1]; 16.7 mg/kg at 48 h) was 13/15 and the “Mortality Percent” value ([1]; 16.7 mg/kg at 48 h) was 87%. The “MDD (Mean Day of Death)” value ([1]; 50 mg/kg at 6 h) was 10.8 days, the “Mortality Percent” value ([1]; 50 mg/kg at 6 h) was 60% and the “Mortality Number” value ([1]; 50 mg/kg at 6 h, i.p. twice daily 5 days) was 9/15. For the same compound, the “MDD (Mean Day of Death)” value ([1]; 50 mg/kg at 24 h) was 8.8 days, the “Mortality Number” value ([1]; 50 mg/kg at 24 h) was 14/15 and the “Mortality Percent” value ([1]; 50 mg/kg at 24 h) was 93%. The “MDD (Mean Day of Death)” value ([1]; 50 mg/kg at 48 h) was 7.5 days, the “Mortality Number” value ([1]; 50 mg/kg at 48 h) was 13/15 and the “Mortality Percent” value ([1]; 50 mg/kg at 48 h) was 87%. The “life span of MCMV-infected mice (in words)” value ([1]; all doses) was “prolonged life span (increased the mean day of death) at all doses”.
`OCC(CO)OCn1cc(Br)c2c(NO)ncnc21` [UMJD 299, 4-hydroxylamino-5-bromo-7-[(1,3-dihydroxy-2-propoxy)methyl]pyrrolo[2,3-d]pyrimidine] showed an inhibition at 100 µM [5] greater than 50%.
